Experimental data from patent US20040091853A1 (priority 2003, published 2004).
Read-outs that look alike come from different tables or passages of the source.

Legend:
[1] = system: pNL4-3-derived HIV reporter particles; format: cell-based
[2] = system: pNL4-3-derived HIV reporter particles; format: cell-based; details: particles made in presence of 1 μM inhibitor; supernatants tested on target cells
[3] = system: VSV-G-enveloped particles; format: cell-based, HIV

Question: Which results are given for `CCc1cc(NCc2nc3c(Cl)ccc(Cl)c3o2)c(O)nc1C` [L-697661]?
Answer: effect on ability of HIV reporter particle to transfer β-lactamase to target cells [1]: had no effect; percentage of blue cells [1]: 10-20% blue cells; percentage of blue cells [2]: ˜10-20% blue cells

Question: For `Cl.N` [NH4Cl], which “blocking of transfer of β-lactamase” value [1] is on record?
Answer: did not block transfer of β-lactamase

Question: And the “percentage of blue cells” value [1]?
Answer: ˜10% blue cells

Question: What about the “blue cells in presence versus absence of NH4Cl” value [3] of the same compound?
Answer: significantly fewer blue cells

Question: And the “percentage of blue cells” value [3]?
Answer: ˜10% blue cells

Question: What does the source list for enfuvirtide?
Answer: blocking of transfer of β-lactamase to target cells [1]: blocked the transfer of β-lactamase to target cells; blocking of transfer of β-lactamase to target cells [3]: neither agent blocked transfer of β-lactamase
